# Test results reported in the supplement of paper PMC10307832.
# What was measured:
# Test in all cases: relative viability (nuclei count vs DMSO), 5 days (fraction); higher = more cells survive
# A-427 = tested on: A-427
# In short: (§1)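 The day after seeding in 1536-well plates, lung cancer cell lines were treated by pin tool with a single drug, or with a fixed anchor-drug dose together with five library-drug doses (not always all listed) in √10 steps. After 5 days, a combined fix-and-stain solution (final 0.05% Triton X-100, 1% formaldehyde, 1 ug/ml Hoechst) was added. Nuclei counted on 4× images gave relative viability as treated counts over vehicle counts, reported as the median of duplicate plates.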
# EMC-BAC-2 = tested on: EMC-BAC-2
# In short: as §1
# ABC-1 = tested on: ABC-1
# In short: as §1
# SW 1573 = tested on: SW 1573
# In short: as §1
# NCI-H2228 = tested on: NCI-H2228
# In short: as §1
# LK-2 = tested on: LK-2
# In short: as §1
# LXF-289 = tested on: LXF-289
# In short: as §1
# COR-L23 = tested on: COR-L23
# In short: as §1
# HOP-62 = tested on: HOP-62
# In short: as §1
# SK-MES-1 = tested on: SK-MES-1
# In short: as §1
# SK-LU-1 = tested on: SK-LU-1
# In short: as §1
# NCI-H727 = tested on: NCI-H727
# In short: as §1
smiles,measurement,setting,value
C=C1C(=O)O[C@@H](CCCCCCCC)[C@@H]1C(=O)O [C-75] + CCNC(=O)c1noc(-c2cc(C(C)C)c(O)cc2O)c1-c1ccc(CN2CCOCC2)cc1 [Luminespib] (partner 0.01 µM),relative viability,A-427; first compound 0.8 µM,0.922
same,relative viability,A-427; first compound 2.53 µM,0.842
same,relative viability,A-427; first compound 8 µM,0.703
same,relative viability,EMC-BAC-2; first compound 0.08 µM,1.25
same,relative viability,EMC-BAC-2; first compound 0.253 µM,1.24
same,relative viability,EMC-BAC-2; first compound 0.8 µM,1.05
same,relative viability,EMC-BAC-2; first compound 2.53 µM,0.876
same,relative viability,EMC-BAC-2; first compound 8 µM,1.18
same,relative viability,ABC-1; first compound 0.253 µM,0.389
same,relative viability,ABC-1; first compound 0.8 µM,0.51
same,relative viability,ABC-1; first compound 2.53 µM,0.364
same,relative viability,ABC-1; first compound 8 µM,0.378
same,relative viability,SW 1573; first compound 0.08 µM,0.168
same,relative viability,SW 1573; first compound 0.253 µM,0.254
same,relative viability,SW 1573; first compound 0.8 µM,0.207
same,relative viability,SW 1573; first compound 2.53 µM,0.216
same,relative viability,SW 1573; first compound 8 µM,0.157
same,relative viability,NCI-H2228; first compound 0.08 µM,0.135
same,relative viability,NCI-H2228; first compound 0.253 µM,0.161
same,relative viability,NCI-H2228; first compound 0.8 µM,0.116
same,relative viability,NCI-H2228; first compound 2.53 µM,0.181
same,relative viability,NCI-H2228; first compound 8 µM,0.283
same,relative viability,LK-2; first compound 0.08 µM,0.193
same,relative viability,LK-2; first compound 0.253 µM,0.195
same,relative viability,LK-2; first compound 0.8 µM,0.191
same,relative viability,LK-2; first compound 2.53 µM,0.185
same,relative viability,LK-2; first compound 8 µM,0.202
same,relative viability,LXF-289; first compound 0.08 µM,0.599
same,relative viability,LXF-289; first compound 0.253 µM,0.66
same,relative viability,LXF-289; first compound 0.8 µM,0.671
same,relative viability,LXF-289; first compound 2.53 µM,0.641
same,relative viability,LXF-289; first compound 8 µM,0.702
same,relative viability,COR-L23; first compound 0.08 µM,0.63
same,relative viability,COR-L23; first compound 0.253 µM,0.706
same,relative viability,COR-L23; first compound 0.8 µM,0.682
same,relative viability,COR-L23; first compound 2.53 µM,0.66
same,relative viability,COR-L23; first compound 8 µM,0.559
same,relative viability,HOP-62; first compound 0.08 µM,0.858
same,relative viability,HOP-62; first compound 0.253 µM,0.945
same,relative viability,HOP-62; first compound 0.8 µM,0.902
same,relative viability,HOP-62; first compound 2.53 µM,0.909
same,relative viability,HOP-62; first compound 8 µM,0.801
same,relative viability,SK-MES-1; first compound 0.08 µM,0.756
same,relative viability,SK-MES-1; first compound 0.253 µM,0.73
same,relative viability,SK-MES-1; first compound 0.8 µM,0.685
same,relative viability,SK-MES-1; first compound 2.53 µM,0.652
same,relative viability,SK-MES-1; first compound 8 µM,0.552
same,relative viability,SK-LU-1; first compound 0.08 µM,0.202
same,relative viability,SK-LU-1; first compound 0.253 µM,0.191
same,relative viability,SK-LU-1; first compound 0.8 µM,0.184
same,relative viability,SK-LU-1; first compound 2.53 µM,0.193
same,relative viability,SK-LU-1; first compound 8 µM,0.161
same,relative viability,NCI-H727; first compound 0.08 µM,0.371
same,relative viability,NCI-H727; first compound 0.253 µM,0.358
same,relative viability,NCI-H727; first compound 0.8 µM,0.312
same,relative viability,NCI-H727; first compound 8 µM,0.484
